In US11440880B2, “Thalidomide analogs and methods of use” (The USA, as represented by the Secretary, Department of …, priority 2015, dated 2022):

How the values were obtained:
[1] = system: mpo:GFP zebrafish embryos (neutrophil migration to the wound site); test: mpo:GFP zebrafish fin-clip neutrophil migration (inflammation) assay; assay type: in vivo; set-up: mpo:GFP inflammation n (survived/tested): concentration or dose not given beside the values; details: for minimal effective concentration: Danio rerio, Neutrophil, lowest concentration producing an effect, compounds not producing an effect shown at the highest evaluated concentration; for mpo:GFP inflammation n (survived/tested): embryos survived/tested at the concentration given
In short: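 Tg(mpo::EGFP) larvae tail-fin clipped (dorsal third removed) at 72 hpf, then immersed in compound or vehicle. Neutrophils migrating to the wound site counted from images 24 h later; at least 50% reduction scored as anti-inflammatory. Viability and morphology also assessed.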

[2] = system: RAW 264.7 cells; test: Cell viability (CellTiter 96 AQueous One) of LPS-challenged RAW 264.7 cells; assay type: cell-based, mouse; set-up: key: NS=not significant; a “+” sign=anti-inflammatory or increased cell numbers; a “−” sign=cell toxicity or pro-inflammatory
In short: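 RAW 264.7 murine macrophages pretreated 1 h with compound or DMSO vehicle, then challenged with LPS (serotype 055:B5) at 30 or 60 ng/mL final for 24 h. After media replacement, viability measured by tetrazolium (MTS) conversion, absorbance at 490 nm, reported as O.D.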

Structure (SMILES) | minimal effective concentration [1] | mpo:GFP inflammation n (survived/tested) [1] | Viability ([2]; 1 μM) | Viability ([2]; 10 μM) | Viability ([2]; 30 μM) | Viability ([2]; 60 μM) | Viability ([2]; 100 μM) | Viability ([2]; 3 μM)
Nc1cccc2c1CN(C13CC4CC(CC(C4)C1)C3)C2=O [Compound 77, 2,3-Dihydro-4-amino-2-(tricyclo[3.3.1.1^3,7]dec-1-yl)-1H-isoindol-1-one] | 200 µg/mL | 5/21 | NS | NS | NS |  |  | 
CC(N1Cc2c(N)cccc2C1=O)C12CC3CC(CC(C3)C1)C2 (stereo not shown) [Compound 81] | 50 µg/mL | 9/21 | NS | NS | NS |  |  | 
O=C1c2ccccc2CN1C12CC3CC(CC(O)(C3)C1)C2 [Compound 86, 2,3-Dihydro-2-(tricyclo[3.3.1.1^3,7]dec-1-hydroxy-3-yl)-1H-isoindol-1-one] | 100 µg/mL | 14/19 | NS | NS | NS |  |  | 
O=C1CCC(N2C(=O)c3cccc([N+](=O)[O-])c3C2=O)C(=O)N1 (stereo not shown) [Compound 5] | 10 µg/mL | 28/28 | NS | NS | NS | NS | NS | 
Nc1cccc2c1CN(C1CCC(=O)NC1=O)C2=S (stereo not shown) [Compound 29] | 5 µg/mL | 2/10 |  | − | − |  |  | −
O=C1NC(=S)CCC1N1C(=O)c2cccc([N+](=O)[O-])c2C1=O (stereo not shown) [Compound 7, 2-(2-Oxo-6-thioxo-3-piperidinyl)-4-nitro-1H-isoindole-1,3(2H)-dione] | 10 µg/mL | 29/29 | NS | NS | NS | NS | + | 
